Drawing on US10029984B2, “Mono- or di-substituted indole derivatives as dengue viral replication inhibitors” (Janssen Pharmaceuticals, Inc., priority 2015, dated 2018), this text covers EC50 and CC50 for nine compounds.

pEC50: −log10 of the molar value. Bounds are passed on as bounds.

Data set [1] concerns DENV-2 strain 16681. Description: Tetravalent RT-qPCR assay Protocol A, serotype 2. It is filed as cell-based. Conditions: Dengue virus, DENV2, 72 h; RT-qPCR serotype 2 16681, Vero cells, day 3. As to the method: (§1) The antiviral activity of the compounds of the invention was tested against DENV-1 strain TC974#666 (NCPV; Table 6), DENV-2 strain 16681 (Table 7), DENV-3 strain H87 (NCPV; Table 8) and DENV-4 strains H241 (NCPV; Table 9) in a RT-qPCR assay. Therefore, Vero cells were infected with either DENV-1, or -2, or -3, or -4 in the presence or absence of test compounds. At day 3 post-infection, the cells were lysed and cell lysates were used to prepare cDNA of both a viral target (the 3′UTR of DENV; table 2) and a cellular reference gene (β-actin, table 2). Subsequently, a duplex real time PCR was performed on a Lightcycler480 instrument. The generated Cp value is inversely proportional to the amount of RNA expression of these targets. Inhibition of DENV replication by a test compound result in a shift of Cp's for the 3′UTR gene. On the other hand, if a test compound is toxic to the cells, a similar effect on β-actin expression will be observed. The comparative ΔΔCp method is used to calculate EC50, which is based on the relative gene expression of the target gene (3′UTR) normalized with the cellular housekeeping gene (β-actin).
(§2) The culture medium consisted of minimal essential medium supplemented with 2% of heat-inactivated fetal calf serum, 0.04% gentamycin (50 mg/mL) and 2 mM of L-glutamine. Vero cells, obtained from ECACC, were suspended in culture medium and 75 μL/well was added in 96-well plates (10000 cells/well), which already contain the antiviral compounds. Typically, these plates contain a 4-fold serial dilution of 9 dilution steps of the test compound at 200 times the final concentration in 100% DMSO (500 nL; final concentration range: 25 μM-0.00038 μM). In addition, each plate contains wells which are assigned as virus controls (containing cells and virus in the absence of compound) and cell controls (containing cells in the absence of virus and compound). Once the cells were added in the plates, the plates were incubated in a fully humidified incubator (37° C., 5% CO2) until the next day. Then, DENV-1 strain TC974#666 at an MOI of 0.6, DENV-2 strain 16681 at an MOI of 0.01, DENV-3 strain H87 at an MOI of 1.0 and DENV-4 strains H241 at an MOI of 0.2 and SG/06K2270DK1/2005 at an MOI of 0.16, were added. Therefore, 25 μL of virus suspension was added to all the wells containing test compound and to the wells assigned as virus control. In parallel, 25 μL of culture medium was added to the cell controls. Next, the plates were incubated for 3 days in a fully humidified incubator (37° C., 5% CO2). After 3 days, the supernatant was removed from the wells and the cells were washed twice with ice-cold PBS (˜100 μL). The cell pellets within the 96-well plates were stored at −80° C. for at least 1 day. Next, RNA was extracted using the Cells-to-CT™ lysis kit, according to the manufacture's guideline (Applied Biosystems). The cell lysates can be stored at −80° C. or immediately used in the reverse transcription step.
(§3) In preparation of the reverse transcription step, mix A (table 3A) was prepared and 7.57 μL/well was dispensed in a 96-well plate. After addition of 5 μL of the cell lysates, a five minute denaturation step at 75° C. was performed (table 3B). Afterwards, 7.43 μL of mix B was added (table 3C) and the reverse transcription step was initiated (table 3D) to generate cDNA.
(§4) Finally, a RT-qPCR mix was prepared, mix C (table 4A), dispensed in 96-well LightCycler qPCR plates to which 3 μL of cDNA was added and the qPCR was performed according to the conditions in table 4B on a LightCycler 480. Using the LightCycler software and an in-house LIMS system, dose response curves for each compound were calculated and the half maximal effective concentration (EC50) and the half maximal cytotoxic concentration (CC50) were determined.
Background: Quantitative PCR measures a nucleic acid by following its amplification.

Data set [2] relates to DENV-1 strain TC974#666. Description: Tetravalent RT-qPCR assay Protocol A, serotype 1. Format: cell-based. Conditions: Dengue virus, DENV1, 72 h; RT-qPCR serotype 1 TC974#666, Vero cells, day 3. The protocol:
as §1, §2, §3, §4

Data set [3] deals with DENV-2 16681 strain. The data set is described as follows: DENV-2 antiviral assay (eGFP-labeled virus in Vero cells). It is filed as cell-based, Dengue virus. Conditions: DENV-2 16681 eGFP, MOI 0.5, 3 days. The method, boiled down: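 Vero cells were pre-plated with compound overnight, then infected with eGFP-labeled DENV-2 16681 at MOI 0.5 and incubated 3 days at 37 °C. eGFP fluorescence read by automated microscopy; 9-point 4-fold dilutions (25 μM–0.00038 μM final) in quadruplicate, EC50 by linear interpolation versus virus and cell controls.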

Data set [4] has as its system DENV-4 strains H241. The data set is described as follows: Tetravalent RT-qPCR assay Protocol A, serotype 4. It is filed as cell-based. Conditions: Dengue virus, DENV4, 72 h; RT-qPCR serotype 4 H241, Vero cells, day 3. As to the method: as §1, §2, §3, §4
A short description of data set [5]: in vitro. It is filed as cell-based. Conditions: African green monkey, CC50. The procedure, abridged:
(§5)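 On the same plates after eGFP read-out, resazurin was added and cells incubated a further 5 h at 37 °C, 5% CO2; resorufin fluorescence read with 530 nm excitation. CC50 is the concentration halving resazurin conversion versus cell control; SI = CC50/EC50.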

A short description of data set [6]: in vitro. Conditions: African green monkey, CC50. It is filed as cell-based. The protocol: as §1, §2, §4
This is another data set of the same source.

Data set [7] relates to DENV-3 strain H87. Description: Tetravalent RT-qPCR assay Protocol A, serotype 3. Format: cell-based. Conditions: Dengue virus, DENV3, 72 h; RT-qPCR serotype 3 H87, Vero cells, day 3. The protocol: as §1, §2, §3, §4
Data set [8] relates to Vero cells. Description: in vitro. It is filed as cell-based. Conditions: African green monkey. The procedure, abridged:
as §5

Consider `COc1cc(NC(C(=O)c2c[nH]c3c(C)c(F)ccc23)c2ccc(F)cc2OC)cc(S(C)(=O)=O)c1` (single isomer, unassigned) [Enantiomer 2A, 2-(4-fluoro-2-methoxyphenyl)-1-(6-fluoro-7-methyl-1H-indol-3-yl)-2-((3-methoxy-5-(methylsulfonyl)phenyl)amino)ethanone], for which the negative-log EC50 (pEC50) (as a rule, the EC50 on a negative log10 scale, so that one unit is a factor of ten) in data set [1] is 9.07; in data set [2] it was 8.23; in data set [3] (listed as 2A*), 9.11; in data set [4], 6.91; in data set [7], 7.23. For the same compound, the half-maximal cytotoxic concentration (CC50) (usually the concentration giving 50% cytotoxicity) in data set [5] came out at 6100 nM. Moreover, the midpoint of cytotoxicity in data set [6], the CC50 at 3 days, lay at 2920 nM.

For `COc1cc(NC(C(=O)c2c[nH]c3c(C)cc(F)cc23)c2ccc(F)cc2OC)cc(S(C)(=O)=O)c1` (single isomer, unassigned) [Enantiomer 8A, 2-(4-fluoro-2-methoxyphenyl)-1-(5-fluoro-7-methyl-1H-indol-3-yl)-2-((3-methoxy-5-(methylsulfonyl)phenyl)amino)ethanone], the pEC50 was 8.89 in data set [1]; 8.17 in data set [2]; 9.00 in data set [3] (listed as 8A*); 6.61 in data set [4]; 7.09 in data set [7]. Further, the midpoint of cytotoxicity in data set [8], the CC50, lay at 5100 nM. For the same compound, in data set [6], the midpoint of cytotoxicity, the CC50 at 3 days, lay at 4400 nM.

On to `COc1cc(NC(C(=O)c2c[nH]c3cc(C)c(F)cc23)c2ccc(F)cc2OC)cc(S(C)(=O)=O)c1` (single isomer, unassigned) [Enantiomer 9A, 2-(4-fluoro-2-methoxyphenyl)-1-(5-fluoro-6-methyl-1H-indol-3-yl)-2-((3-methoxy-5-(methylsulfonyl)phenyl)amino)ethanone], for which the negative logarithm of the EC50 (pEC50) in data set [1] is 8.95; in data set [2], 8.00; in data set [3] (listed as 9A*), 8.96; in data set [4], 6.62; in data set [7] it was 6.98. In data set [8], this compound returned a CC50 of 4800 nM. Also, the CC50 at 3 days in data set [6] came out at 4040 nM.

For the compound `COc1cc(NC(C(=O)c2c[nH]c3cc(OC)c(F)cc23)c2ccc(F)cc2OC)cc(S(C)(=O)=O)c1` (single isomer, unassigned) [Enantiomer 11A, 2-(4-fluoro-2-methoxyphenyl)-1-(5-fluoro-6-methoxy-1H-indol-3-yl)-2-((3-methoxy-5-(methylsulfonyl)phenyl)amino)ethanone], the pEC50 in data set [1] is 8.96; in data set [2], 7.96; in data set [3] (listed as 11A*), 8.96; in data set [4], 6.65; in data set [7] it was 7.03. The same compound came in with a CC50 in data set [8] of 6600 nM. In addition, in data set [6], the CC50 at 3 days was 4380 nM.

On to `COc1cc(NC(C(=O)c2c[nH]c3cc(F)c(C)cc23)c2ccc(F)cc2OC)cc(S(C)(=O)=O)c1` (single isomer, unassigned) [Enantiomer 14A, 2-(4-fluoro-2-methoxyphenyl)-1-(6-fluoro-5-methyl-1H-indol-3-yl)-2-((3-methoxy-5-(methylsulfonyl)phenyl)amino)ethanone], for which the pEC50 is 9.25 in data set [1]; 8.85 in data set [2]; 9.36 in data set [3] (listed as 14A*); 7.16 in data set [4]; 7.88 in data set [7]. The compound also registered a CC50 in data set [8] of 3400 nM. In data set [6], this compound registered a CC50 at 3 days of 2420 nM.

Turning to `COc1cc(NC(C(=O)c2c[nH]c3ccc(C)cc23)c2ccc(F)cc2OC)cc(S(C)(=O)=O)c1` (single isomer, unassigned) [Enantiomer 15A, 2-(4-fluoro-2-methoxyphenyl)-2-((3-methoxy-5-(methylsulfonyl)phenyl)amino)-1-(5-methyl-1H-indol-3-yl)ethanone], the pEC50 was 8.99 in data set [1]; 8.45 in data set [2]; 9.10 in data set [3] (listed as 15A*); 7.04 in data set [4]; 7.66 in data set [7]. Besides, the CC50 in data set [8] stood at 5400 nM. The compound also showed a CC50 at 3 days in data set [6] of over 2500 nM.

As for `COc1cc(NC(C(=O)c2c[nH]c3cc(OC)c(Cl)cc23)c2ccc(F)cc2OC)cc(S(C)(=O)=O)c1` (single isomer, unassigned) [Enantiomer 16A, 1-(5-chloro-6-methoxy-1H-indol-3-yl)-2-(4-fluoro-2-methoxyphenyl)-2-((3-methoxy-5-(methylsulfonyl)phenyl)amino)ethanone], the pEC50 in data set [1] was 9.73; in data set [2], 8.49; in data set [3] (listed as 16A*), 9.38; in data set [4], 7.10; in data set [7], 7.60. The 50% cytotoxic concentration (CC50) in data set [8] came out at 3700 nM. The 50% cytotoxic concentration (CC50) at 3 days in data set [6] stood at 3170 nM.

Take `COc1cc(NC(C(=O)c2c[nH]c3ccc(C(F)(F)F)cc23)c2ccc(F)cc2OC)cc(S(C)(=O)=O)c1` (single isomer, unassigned) [Enantiomer 17B, 2-(4-fluoro-2-methoxyphenyl)-2-((3-methoxy-5-(methylsulfonyl)phenyl)amino)-1-(5-(trifluoromethyl)-1H-indol-3-yl)ethanone]: the pEC50 was 10.04 in data set [1]; 9.32 in data set [2]; 9.70 in data set [3] (listed as 17B*); 7.67 in data set [4]; 8.14 in data set [7]. In data set [8], this compound came in with a CC50 of 3600 nM. For the same compound, in data set [6], the CC50 at 3 days came out at 1610 nM.

On to `COc1cc(NC(C(=O)c2c[nH]c3ccc(OC(F)(F)F)cc23)c2ccc(F)cc2OC)cc(S(C)(=O)=O)c1` (single isomer, unassigned) [Enantiomer 18A, 2-(4-fluoro-2-methoxyphenyl)-2-((3-methoxy-5-(methylsulfonyl)phenyl)amino)-1-(5-(trifluoromethoxy)-1H-indol-3-yl)ethanone], for which the pEC50 in data set [1] was 9.85; in data set [2], 9.45; in data set [3] (listed as 18A*) it was 10.07; in data set [4], 7.74; in data set [7] it was 8.12. The compound also showed a CC50 in data set [8] of 3100 nM. The compound also displayed a CC50 at 3 days in data set [6] of 3010 nM.
